Results on 15 molecules are retold here after patent US4767770A, “Method of inhibiting aromatase” (Eli Lilly and Company, priority 1984, dated 1988).

Read-outs that look alike come from different tables or passages of the source.

One assay concerns the target T1, aromatase (Rattus norvegicus, UniProt P22443).
T1 sequence (P22443 1-508): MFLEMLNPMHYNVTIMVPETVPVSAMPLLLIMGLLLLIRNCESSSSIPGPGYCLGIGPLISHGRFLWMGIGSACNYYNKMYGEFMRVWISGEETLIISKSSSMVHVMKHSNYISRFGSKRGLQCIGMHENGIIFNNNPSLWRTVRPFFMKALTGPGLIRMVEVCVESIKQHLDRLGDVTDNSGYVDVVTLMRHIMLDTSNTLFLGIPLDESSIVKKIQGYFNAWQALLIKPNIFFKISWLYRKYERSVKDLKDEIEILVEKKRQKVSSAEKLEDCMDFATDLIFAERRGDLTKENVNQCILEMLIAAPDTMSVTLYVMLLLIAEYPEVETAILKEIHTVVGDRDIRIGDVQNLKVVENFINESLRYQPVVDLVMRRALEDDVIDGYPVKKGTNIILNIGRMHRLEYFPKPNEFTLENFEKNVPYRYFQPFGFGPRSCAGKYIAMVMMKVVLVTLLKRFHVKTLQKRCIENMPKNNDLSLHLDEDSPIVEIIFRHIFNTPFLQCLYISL
The assay can be described thus: biochemical.

The test system of assay [1] is estrogen synthesis (aromatization); uterus. The assay can be described thus: Estrogen Synthesis Inhibition in Rats: uterine weight of testosterone propionate-treated immature rats. To be noted: 7 days. In kind it is in vivo, immature female Wistar rats. Here is the method: Immature female Wistar rats (45-55 grams) were divided into control and test groups of 2-8 animals each. Test compounds were administered for seven days as a component of the diet. Control animals received diet without the test compound. Beginning on the fourth day of the test, all animals treated with the test compound and one half of the control animals were given a subcutaneous injection of 1.0 mg of testosterone propionate in corn oil. The remaining control animals received only an equivalent volume of corn oil. On the seventh day of the test, rats treated with testosterone propionate were injected subcutaneously with 100 μCi of [^3 H]-testosterone in 50 μl of 3:1 (v/v) saline-ethanol.
After two hours, the animals were killed by decapitation. Uteri were isolated, trimmed of extraneous connective tissue, and weighed. […] In the control animals treated with testosterone propionate, estrogens produced by aromatization stimulated the uterus resulting in an increase in weight.
*ppm in feed. 300 ppm corresponds to approximately 30 mg/kg/day; 200 ppm
corresponds to approximately 20 mg/kg/day; 30 ppm corresponds to
approximately 3 mg/kg/day.

In assay [2] the test system is estrogen synthesis (ovarian estradiol, estrone, estriol). As to the kind of experiment: Estrogen Synthesis Inhibition in Rats: ovarian steroid concentration after [3H]-testosterone. In kind it is in vivo, immature female Wistar rats. To be noted: 7 days. On the procedure:
Test compounds were administered for seven days as a component of the diet. Control animals received diet without the test compound. Beginning on the fourth day of the test, all animals treated with the test compound and one half of the control animals were given a subcutaneous injection of 1.0 mg of testosterone propionate in corn oil. The remaining control animals received only an equivalent volume of corn oil.
The ovarian steroids were extracted with 1.5 ml of 9:1 (v/v) toluene/ethanol to which had been added 25 to 100 mcg each of unlabelled estradiol, estriol, and estrone, and approximately 1000 dpm of [^14 C]-estradiol. The samples were vortexed, centrifuged at 500×g for 10 minutes, and the organic phase was transferred to a conical vial. Two additional extractions were performed on the residue in the same way. The pooled organic extracts were evaporated for subsequent thin-layer chromatography.
Ovarian proteins were precipitated by the addition of 5.0 ml of ethanol to the remaining aqueous phase. After an overnight incubation at 4° C., the samples were centrifuged at 1500×g for 10 minutes. The supernatant was discarded and the pellet was dissolved in 0.3N potassium hydroxide.
The organic residue from each above extraction was redissolved in 9:1 (v/v) dichloromethane/methanol. The solution of each sample was applied to separate silica gel thin layer chromatography plates which contained a fluorescent indicator. The plates were developed in the first dimension with 160:38:1.5:0.5 (v/v/v/v) dichloromethane/ethyl acetate/methanol/acetic acid to within 3 cm of the top of the plate. After air-drying, the plate was developed in the second dimension with 180:19:1 (v/v/v) dichloromethane/methanol/ammonium hydroxide.
The spots were scraped from the plate using a glass wool plugged Pasteur pipet attached to a vacuum line. The steroids were eluted directly into scintillation vials by the addition of 0.2 ml of dichloromethane followed by two washes each of 2.0 ml of methanol. The organic solvent was evaporated and 10.0 ml of scintillation fluid (Beckman Ready Solv-NA) was added to the vials. Samples were analyzed by liquid scintillation spectrometry. Corrections were made based on the recoveries of the [^14 C]-steroid. Steroid concentrations are expressed as femtomoles per milligram protein.

[3] abbreviates: rat ovarian microsomes, substrate (androstenedione) 0.1 μM.
[4] abbreviates: Test IV, 200 ppm in feed (approx. 20 mg/kg/day), testosterone-treated control 213.5.
[5] abbreviates: Test IV, 200 ppm in feed (approx. 20 mg/kg/day), testosterone-treated control 0.14.
Setting [6] is: Test IV, 200 ppm in feed (approx. 20 mg/kg/day), testosterone-treated control 0.24.
Where [7] appears, read: Test IV, 200 ppm in feed (approx. 20 mg/kg/day), testosterone-treated control 1.98.

Description for aromatase: In this test system, ovarian microsomes are obtained from rats treated with pregnant mares serum gonadotropin. Test compounds are added to reaction vials containing 0.1 μM 4-androstene-3,17-dione, 100,000 dpm 1,2[^3 H]-androstenedione, the microsomes and a NADPH generating system. The concentrations of the inhibitors tested ranged between 0.005 and 10 μM.

Molecule `Clc1ccc(CN(Cc2cccnc2)C2=NCCS2)c(Cl)c1` [N--(4,5-dihydro-2-thiazolyl)-N--(2,4-dichlorobenzyl)-3-pyridinemethanamine] came in with an EC50 at aromatase of 0.118 µM.

On aromatase, `Brc1ccc(N(Cc2cccnc2)C2=NCCS2)cc1` [N--(4,5-dihydro-2-thiazolyl)-N--(4-bromophenyl)-3-pyridinemethanamine] yielded an EC50 of 0.11 µM.

On aromatase, `CC(c1ccc(F)cc1)N(C1=NCCS1)C(C)c1cccnc1` (stereo not drawn) [N--(4,5-dihydro-2-thiazolyl)-N--[1-(4-fluorophenyl)ethyl]-α-methyl-3-pyridinemethanamine] had an EC50 of 3.3 µM.

Regarding `Clc1ccc(CCN(Cc2cccnc2)C2=NCCS2)cc1` [N--(4,5-dihydro-2-thiazolyl)-N--[2-(4-chlorophenyl)ethyl]-3-pyridinemethanamine], at aromatase (setting [3]), the 50% effective concentration (EC50) came out at 0.9 µM.

On to `CSc1ccc(N(Cc2cccnc2)C2=NCCS2)cc1` [N--(4,5-dihydro-2-thiazolyl)-N--[4-(methylthio)phenyl]-3-pyridinemethanamine], for which the EC50 at aromatase (setting [3]) came out at 3.2 µM.

Molecule `c1ccc(N(Cc2cccnc2)C2=NCCS2)cc1` [N--(4,5-dihydro-2-thiazolyl)-N--phenyl-3-pyridinemethanamine] showed an EC50 on aromatase of 0.46 µM.

On aromatase (setting [3]), `Cc1cc(Cl)ccc1N(Cc1cccnc1)C1=NCCS1` [N--(4-chloro-2-methylphenyl)-N--(4,5-dihydro-2-thiazolyl)-3-pyridinemethanamine] came in with an EC50 of 0.44 µM.

Molecule `Clc1ccc(N(Cc2cccnc2)C2=NCCCS2)cc1` [N--(4-chlorophenyl)-5,6-dihydro-N--(3-pyridylmethyl)-4H--1,3-thiazin-2-amine] registered an EC50 on aromatase of 0.072 µM. For the same molecule, in assay [1] (setting [4]), the “Mean Uterine Weight” value was 193.0 mg. Moreover, the “Mean Steroid Concentration, estriol” value in assay [2] (setting [5]) is given as 0.04 femtomoles per milligram of protein. Also, the “Mean Steroid Concentration, estrone” value in assay [2] (setting [6]) is on record as 0.11 femtomoles per milligram of protein. Moreover, the “Mean Steroid Concentration, estradiol” value in assay [2] (setting [7]) is recorded as 1.54 femtomoles per milligram of protein.

Consider `Clc1ccc(N(Cc2cccnc2)C2=NCCO2)cc1` [N--(4-chlorophenyl)-N--(4,5-dihydro-2-oxazolyl)-3-pyridinemethanamine], for which the EC50 on aromatase worked out at 0.08 µM.

Molecule `Clc1ccc(N(Cc2cnccn2)C2=NCCS2)cc1` [N--(4-chlorophenyl)-N--(4,5-dihydro-2-thiazolyl)-2-pyrazinemethanamine] registered an EC50 at aromatase of 3.13 µM.

As for `Clc1ccc(N(Cc2cncnc2)C2=NCCS2)cc1` [N--(4-chlorophenyl)-N--(4,5-dihydro-2-thiazolyl)-5-pyrimidinemethanamine], the EC50 at aromatase is 0.61 µM.

With `CC(c1cccnc1)N(C1=NCCS1)c1ccc(Cl)cc1` (stereo not drawn) [N--(4-chlorophenyl)-N--(4,5-dihydro-2-thiazolyl)-α-methyl-3-pyridinemethanamine], the EC50 at aromatase (setting [3]) is 2.35 µM.

Regarding `CC1CSC(N(Cc2cccnc2)c2ccc(Cl)cc2)=N1` (stereo not drawn) [N--(4-chlorophenyl)-N--(4,5-dihydro-4-methyl-2-thiazolyl)-3-pyridinemethanamine], the “Mean Uterine Weight” value in assay [1] (Test III, 30 ppm in feed (approx. 3 mg/kg/day), testosterone-treated control 220.0) is 225.5 mg; in assay [1] (Test III, 300 ppm in feed (approx. 30 mg/kg/day), testosterone-treated control 220.0), 187.6 mg. Also, the “Mean Steroid Concentration, estrone” value is 1.14 femtomoles per milligram of protein in assay [2] (Test III, 30 ppm in feed (approx. 3 mg/kg/day), testosterone-treated control 1.02) and 0.62 femtomoles per milligram of protein in assay [2] (Test III, 300 ppm in feed (approx. 30 mg/kg/day), testosterone-treated control 1.02). For the same molecule, the “Mean Steroid Concentration, estradiol” value was 2.40 femtomoles per milligram of protein in assay [2] (Test III, 30 ppm in feed (approx. 3 mg/kg/day), testosterone-treated control 1.31) and 0.95 femtomoles per milligram of protein in assay [2] (Test III, 300 ppm in feed (approx. 30 mg/kg/day), testosterone-treated control 1.31). The “Mean Steroid Concentration, estriol” value in assay [2] (Test III, 30 ppm in feed (approx. 3 mg/kg/day), testosterone-treated control 1.32) was 1.56 femtomoles per milligram of protein; in assay [2] (Test III, 300 ppm in feed (approx. 30 mg/kg/day), testosterone-treated control 1.32) it was 0.37 femtomoles per milligram of protein.

For `CC1CSC(N(c2ccc(Cl)cc2)C(C)c2cccnc2)=N1` (stereo not drawn) [N--(4-chlorophenyl)-N--(4,5-dihydro-4-methyl-2-thiazolyl)-α-methyl-3-pyridinemethanamine], the EC50 on aromatase (setting [3]) was 1.95 µM.

`CC(c1ccc(Cl)cc1)N(Cc1cccnc1)C1=NCCS1` (stereo not drawn) [N--[1-(4-chlorophenyl)ethyl]-N--(4,5-dihydro-2-thiazolyl)-3-pyridinemethanamine] showed an EC50 at aromatase of 0.048 µM. In assay [1] (setting [4]), the “Mean Uterine Weight” value is recorded as 185.8 mg. Also, in assay [2] (setting [5]), the “Mean Steroid Concentration, estriol” value was 0.04 femtomoles per milligram of protein. The “Mean Steroid Concentration, estrone” value in assay [2] (setting [6]) was 0.13 femtomoles per milligram of protein. For the same molecule, in assay [2] (setting [7]), the “Mean Steroid Concentration, estradiol” value is given as 1.01 femtomoles per milligram of protein.

In general, EC50 refers to the concentration giving half of the maximal effect.
